Assays:
LovD = molecular target: T1, LovD (Aspergillus terreus, UniProt Q9Y7D1); test: LovD transacylation assay: acyl transfer from acyl thioester to C8 hydroxyl of monacolin J, HPLC; type: biochemical; design: 6xHis (N); made in house; host or cells: E. coli BL21(DE3)/pAW31 (pET28a); settings: for apparent kcat (initial turnover rate in the linear range) of monacolin J acylation: 10 μM LovD, 4 mM acyl donor; for apparent kcat (initial turnover rate in the linear range) of monacolin J acylation / substrate competence for LovD: 1 mM monacolin J; for apparent kcat (initial turnover rate in the linear range) of monacolin J acylation / Initial Velocity (ki): 50 mM HEPES, pH 7.9; for substrate competence for LovD: 4 mM acyl-CoA, 10 uM LovD, 10 hours; for Initial Velocity (ki): 1 mM MJ, 4 mM thioester substrate, 10 uM pure LovD, rate of initial turnover in the linear range
T1 sequence (Q9Y7D1 1-413): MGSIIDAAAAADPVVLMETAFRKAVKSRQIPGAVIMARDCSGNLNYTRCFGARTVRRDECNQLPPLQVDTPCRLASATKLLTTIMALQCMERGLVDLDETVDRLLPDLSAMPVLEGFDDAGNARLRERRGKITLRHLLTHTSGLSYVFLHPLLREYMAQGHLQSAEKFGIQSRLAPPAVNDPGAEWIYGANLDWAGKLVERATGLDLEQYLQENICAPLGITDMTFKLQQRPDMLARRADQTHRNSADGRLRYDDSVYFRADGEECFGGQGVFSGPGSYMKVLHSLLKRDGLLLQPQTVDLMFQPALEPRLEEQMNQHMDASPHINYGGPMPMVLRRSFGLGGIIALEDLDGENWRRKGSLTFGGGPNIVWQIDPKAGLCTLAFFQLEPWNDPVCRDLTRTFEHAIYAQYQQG
Experimental: We first examined if an acyl-CoA can be used as substrate for the transacylation reaction. The uninterrupted gene of LovD was amplified from A. terreus genomic DNA using splice by overlap extension PCR and was inserted into the pET28a expression vector. Overexpression of soluble, N-terminal 6×His fusion LovD was performed in E. coli strain BL21(DE3)/pAW31. LovD was purified using Nickel-NTA affinity column to homogeneity (final yield˜40 mg/L). The substrate monacolin J (1 mM) was prepared through the LiOH hydrolysis of lovastatin and was added to a reaction mixture containing pure LovD (10 μM) and butyryl-CoA (4 mM), which is a commercially available acyl-CoA that best mimics the natural α-methylbutyrate side chain. The reaction mixture was incubated at room temperature, extracted with ethyl acetate and analyzed by HPLC and LC-MS (FIG. 5).
We assayed the tolerance of LovD towards different acyl substituents by performing the transacylation assay with various commercially available acyl-CoAs (Table 1A). All assays were perform with 1 mM monacolin J, 4 mM acyl-CoA and 10 uM LovD for 10 hours.
Expression and purification of LovD has been previously described in detail (see, e.g., Xie et al., 2006, Chem Biol 13: 1161-1169). The assays were performed at room temperature in 50 mM HEPES, pH 7.9. The initial velocities (ki) of the acyl substrates were determined with 10 μM LovD, 1 mM monacolin J and 4 mM of the thioester. The reaction mixture at different time points was quenched by trifluoroacetic acid (TFA), extracted with ethyl acetate, evaporated to dryness and redissolved in acetonitrile. The percent conversion of monacolin J to simvastatin was determined by HPLC analysis (C18). The linear range of the turnover rate is reported as ki in Table 1B. To determine the Km of DMB-S-MMP, the concentration of monacolin J is fixed at 2 mM, while the concentration of DMB-S-MMP was varied from 0.2 mM to 10 mM. DMSO is added to a final concentration of 5% to facilitate solubilization of DMB-S-MMP. To obtain Km of monacolin J, DMB-S-MMP concentration is fixed at 2 mM, while the concentration of monacolin J is varied from 0.2 mM to 5 mM.

BioH = molecular target: T2, BioH (Escherichia coli, UniProt P13001); test: BioH enzymatic hydrolysis assay of dimethylbutyryl thioesters, HPLC 234 nm; type: biochemical; settings: 1 mM substrate, 10 nM BioH
T2 construct: The bioH gene was amplified from E. coli genomic DNA by PCR with flanking restriction sites NdeI and EcoRI; 6xHis (N); made in house; host or cells: E. coli BL21(DE3)/pXK8 (pET28a)
T2 sequence (P13001 1-256): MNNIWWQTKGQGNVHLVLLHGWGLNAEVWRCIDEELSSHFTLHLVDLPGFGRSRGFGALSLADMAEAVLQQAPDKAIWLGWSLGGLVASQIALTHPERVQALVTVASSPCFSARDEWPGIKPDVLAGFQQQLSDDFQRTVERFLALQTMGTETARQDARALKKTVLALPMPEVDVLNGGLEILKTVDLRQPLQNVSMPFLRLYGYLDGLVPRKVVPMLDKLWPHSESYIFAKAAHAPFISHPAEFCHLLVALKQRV
Experimental: (§1) The hydrolysis assays were performed at room temperature in 50 mM HEPES, pH 7.9. The thioester substrate DMB-S-MMP was added to final concentration between 0.1 mM and 1.0 mM. To facilitate solubilization of DMB-S-MMP, DMSO was added to a final concentration of 10% for all the samples. The reaction was initiated with the addition of BioH (0.01 μM) and quenched at desired time points (10, 20, 30 minutes) by adding equal volume of EA/1% AcOH. The organic phase was separated, dried and redissolved in 20 μL of ACN and analyzed with HPLC. The conversions of DMB-S-MMP to DMB-S-MPA were quantified by integration of the peaks at 234 nm. Comparison of the BioH catalytic efficiency towards the three dimethylbutyryl thioesters were performed at 1 mM substrate concentration and 10 nM BioH concentration.

E. coli BL21(DE3)/pAW31 = test: Whole cell biocatalysis with E. coli overexpressing LovD; type: cell-based, Escherichia coli; settings: 4 mM acyl donor
Experimental: The BL21(DE3)/pAW31 overexpression strain was grown in a shake flask (200 mL) to an OD600 of 1.0, at which time 1 mM IPTG, 0.8 mM monacolin J and 4 mM of either benzoyl-SNAC or benzoyl-SMTG were added to the culture. Expression of LovD and bioconversion was performed at 18° C. The culture was extracted and analyzed for the formation of 8-benzoyl-monacolin J. When supplemented with benzoyl-SNAC, 84% conversion of monacolin J was detected within 20 hours post-induction. The product was lactonized and purified by a single silica-gel chromatography step. The NMR spectra confirmed the regioselective benzoylation of the C8 hydroxyl group as the diagnostic H8 multiplet is shifted downfield to δ 5.61.
Fermentation conditions: 500 mL culture with LB media with 30 mg/L kanamycin. At OD600 of 1.0, cells were concentrated to a final OD600 of 5.0 and induced with 1 mM IPTG. Substrates monacolin J and α-dimethylbutyryl-SNAC were added to a final concentration of 1 mM and 4 mM. At different time points, culture samples were collected, centrifuged, filtered and injected on to HPLC (20 μL). Extraction conditions: When maximum conversion was reached, the broth was acidified to pH of 2.0, extracted with ethyl acetate, dried and redissolved in toluene.
Whole-cell catalytic synthesis of simvastatin acid from MJ acid and DMB-S-MMP were performed as described (see, e.g., Xie et al., (2007) Appl Environ Microbiol 73: 2054-2060). The E. coli BL21(DE3)/pAW31 and YT2/pAW31 strains were cultured side-by-side for comparison. A single colony of the freshly transformed strains was used to inoculate a 5 mL LB culture supplemented with 35 mg/L kanamycin and grown overnight at 37° C. The next morning, 100 μL of the overnight culture was inoculated into 50 mL cultures containing LB broth, F1 minimal medium and F1 medium supplemented with 0.15 mg/L biotin. Growth rates were monitored by periodically measuring the OD600 reading. When OD600 reached ˜0.5, 100 μM IPTG was added to the culture and expression of LovD was performed at 20° C. for 16 hours. To mimic high density fermentation conditions, the cells were concentrated 10-fold before addition of substrates. Typically, a 14 mL aliquot of the culture was transferred to a 15 mL centrifuge tube and the cells were collected by centrifugation (4° C., 4000 g, 10 minutes). The cell pellet was gently resuspended in 1316 μl of the supernatant, followed by addition of 84 μl of a MJ acid stock solution (250 mM in H2O) (final concentration 15 mM). The concentrated culture was then separated into seven 200 μL samples and 1.2 μL of pure DMB-S-MMP was added to each sample (final concentration ˜25 mM). The culture was then shaken at 300 rpm at room temperature. At each time point, a total extraction was performed by adding 10 μL 20% SDS to lyse the cells, followed by liquid-liquid extraction with 500 μL EA/1% AcOH. The organic phase was removed, evaporated, and redissolved in 50 μL ACN for HPLC analysis. For the BL21(DE3) sample, an additional 1.2 μL aliquot of DMB-S-MMP was added after 12 hours to replenish the hydrolyzed substrates.
The E. coli BL21(DE3)/pAW31 strain was grown in LB medium at 37° C. to an OD600 of 0.5, at which time 100 μM IPTG was added to the culture and expression was performed at RT for 16 hours. A 10 ml culture was transferred to a 15 mL centrifuge tube. The cells were collected by centrifugation (4000 g, 10 minutes). The cell pellet was resuspended in 957 μl of the supernatant. The pH was adjusted to pH 7.9 with 1.0 N NaOH, followed by addition of 33 μl 450 mM MJ (final concentration 15 mM) and 6 μl pure DMB-S-MMP (final concentration ˜25 mM). The culture was then shaken at 300 rpm at room temperature. At each time point, a 4 μL aliquot was removed from the reaction mixture, quenched in 300 μL ethyl acetate containing 1% TFA.

[1] = substrate: CCC(C)(C)C(=O)SCCC(=O)OC; test: BioH enzymatic hydrolysis assay of dimethylbutyryl thioesters, HPLC 234 nm; type: biochemical, Escherichia coli; settings: other: 50 mM HEPES, pH 7.9, 10% DMSO, 0.01 μM BioH
Experimental: as §1

CCCC(=O)SCCNC(C)=O [butyryl-SNAC]
apparent kcat (initial turnover rate in the linear range) of monacolin J acylation (LovD): 0.0015 s⁻¹

CC(=O)CC(=O)SCCNC(=O)CCNC(=O)[C@H](O)C(C)(C)COP(=O)(O)OP(=O)(O)OC[C@H]1O[C@@H](n2cnc3c(N)ncnc32)[C@H](O)[C@@H]1OP(=O)(O)O [Acetoacetyl-CoA, reference compound]
substrate competence for LovD (LovD): excellent substrates

CC[C@H](C)C(=O)SCCNC(C)=O [α-S-methylbutyryl-SNAC]
apparent kcat (initial turnover rate in the linear range) of monacolin J acylation (LovD): ~0.00067 s⁻¹

CCC(C)(C)C(=O)SCC(=O)OC [DMB-S-MTG, dimethylbutyryl-S-methyl thioglycolate]
decrease in the rate of hydrolysis by BioH relative to DMB-S-MMP (BioH): 2.5 fold | Initial Velocity (ki) (LovD): 0.03 min⁻¹

CCCCCCCCCCCCCCCC(=O)SCCNC(=O)CCNC(=O)[C@H](O)C(C)(C)COP(=O)(O)OP(=O)(O)OC[C@H]1O[C@@H](n2cnc3c(N)ncnc32)[C@H](O)[C@@H]1OP(=O)(O)O [palmitoyl-CoA, reference compound]
substrate competence for LovD (LovD): inactive

CC(O)CC(=O)SCCNC(=O)CCNC(=O)[C@H](O)C(C)(C)COP(=O)(O)OP(=O)(O)OC[C@H]1O[C@@H](n2cnc3c(N)ncnc32)[C@H](O)[C@@H]1OP(=O)(O)O (stereo partly drawn) [β-hydroxylbutyryl-CoA, reference compound]
substrate competence for LovD (LovD): excellent substrates

CC(C)(COP(=O)(O)OP(=O)(O)OC[C@H]1O[C@@H](n2cnc3c(N)ncnc32)[C@H](O)[C@@H]1OP(=O)(O)O)[C@@H](O)C(=O)NCCC(=O)NCCSC(=O)CC(=O)O [malonyl-CoA, reference compound]
substrate competence for LovD (LovD): inactive

CCC(C)(C)C(=O)SCCCC(=O)OC [DMB-S-MMB, dimethylbutyryl-S-methyl mercaptobutyrate]
Initial Velocity (ki) (LovD): 0.78 min⁻¹

C[C@H]1C=C2C=C[C@H](C)[C@H](CC[C@@H]3C[C@@H](O)CC(=O)O3)[C@H]2[C@@H](O)C1 [monacolin J]
Km (LovD; DMB-S-MMP fixed at 2 mM, monacolin J 0.2-5 mM): 780 ± 120 µM

CCOC(=O)CCSC(=O)C(C)(C)CC [DMB-S-EMP, dimethylbutyryl-S-ethyl mercaptopropionate]
rate of substrate hydrolysis by BioH relative to DMB-S-MMP (BioH): significantly attenuated | Initial Velocity (ki) (LovD): 0.70 min⁻¹

CCC(C)(C)C(=O)SCCNC(C)=O [DMB-S-NAC, α-dimethylbutyryl-S-N-acetylcysteamine]
Initial Velocity (ki) (LovD): 0.02 min⁻¹ | conversion of monacolin J to simvastatin, low cell-density fermentation (E. coli BL21(DE3)/pAW31; 1 mM monacolin J, after two days of culturing): ~90%

CC(=O)NCCSC(=O)c1ccccc1 [benzoyl-SNAC]
apparent kcat (initial turnover rate in the linear range) of monacolin J acylation (LovD): 0.002 s⁻¹ | conversion of monacolin J (benzoylation) in vivo (E. coli BL21(DE3)/pAW31; 0.8 mM monacolin J, 18° C., within 20 hours post-induction): 84%

B1: BioH (Escherichia coli K-12) (protein)
chain: T2 sequence (P13001 1-256)
notes: The bioH gene was amplified from E. coli genomic DNA by PCR with flanking restriction sites NdeI and EcoRI; 6xHis (N); made in house; host or cells: E. coli BL21(DE3)/pXK8 (pET28a)
Km [1]: 229 ± 26 µM | kcat [1]: 260 ± 45 s⁻¹

— patent US9970037B2, “Methods and materials for making simvastatin and related compounds” (The Regents of the University of California, priority 2006, dated 2018)
